In patent US7884117B2, “Carbonylamino pyrrolopyrazoles, potent kinase inhibitors” (Pfizer Inc., priority 2005, dated 2011) one finds Ki and EC50 data, which are given here for 19 molecules.

For assay [1], the target named is T1, PAK4 Kinase domain (PAK4 KD) (Homo sapiens, UniProt O96013).
T1 construct: Cloning, expression, and purification of recombinant PAK4 Kinase domain (PAK4 KD); His tag (pET28a(+)/pET24a(+), Ni-NTA purification) (N, cleaved yes); GST (pGST4.5, glutathione column) (N, cleaved yes); made in house; host or cells: E. coli BL21(DE3)
T1 sequence (O96013 321-572 limits assumed): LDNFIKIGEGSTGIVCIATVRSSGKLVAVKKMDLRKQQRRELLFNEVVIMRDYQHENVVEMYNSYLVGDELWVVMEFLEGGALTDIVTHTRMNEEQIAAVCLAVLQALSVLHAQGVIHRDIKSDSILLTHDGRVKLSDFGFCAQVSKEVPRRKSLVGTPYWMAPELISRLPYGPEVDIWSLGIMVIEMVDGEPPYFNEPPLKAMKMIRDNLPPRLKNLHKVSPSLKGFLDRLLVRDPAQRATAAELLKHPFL
Kind of assay: PAK4 kinase domain enzymatic assay (PK/LDH-coupled, Ki). Type of assay: biochemical. Conditions: PAK4 Kinase Domain.

The target of assay [2] is T2, PAK4 kinase activity in whole cells (TR-293-KDG, modified HEK 293) (Homo sapiens, UniProt O96013).
T2 construct: engineered to overexpress both GEF-H1b and the kinase domain (KD) of PAK4; expressed in transfected cells; host or cells: TR-293-KDG (modified HEK 293, Trex system, Invitrogen)
T2 sequence (O96013 321-572 limits assumed): as above
Kind of assay: PAK4 cellular assay: sandwich ELISA of PAK4-dependent phosphorylation of GEF-H1b in TR-293-KDG cells. The assay is classed as cell-based. Conditions: 3-hour exposure.
Description: A sandwich ELISA method was used to measure the PAK4 kinase activity in whole cells. The level of PAK4-dependent phosphorylation of GEF-H1b can be determined by monitoring the binding of a phosphospecific antibody to GEF-H1b. […] The KD of PAK4 is inducible in this cell line by tetracycline (Trex system, Invitrogen). […] To establish a phosphorylation event on GEF-HL, cells are induced with doxycycline to express the PAK4 KD. […] Candidate substance effect is measured as the ability to block this phosphorylation event.
ELISA plate was prepared by pre-coating the plates with a capture antibody (α-HA-tag mouse monoclonal antibody), blocked with BSA, and washed in 0.1% tween 20 in tris-buffered saline (TBST). […] Cells were then lysed with a modified RIPA buffer supplemented with protease inhibitors. […] Between all subsequent steps plates were washed 4 times with TBST. Detection antibody (recognizing the phospho-specific eptitope on GEF-H1b) was added for 1 hour, followed by addition of an enzyme linked goat α-rabbit secondary antibody for 45 minutes. […] EC50 values were calculated by sigmoid curve fitting using a four-parameter analysis.

In assay [1], `CC1(C)c2[nH]nc(NC(=O)c3cccs3)c2CN1C(=O)N[C@H](CO)c1ccccc1` [Example 100, N-[(1S)-2-hydroxy-1-phenylethyl]-6,6-dimethyl-3-[(2-thienylcarbonyl)amino]-4,6-dihydropyrrolo[3,4-c]pyrazole-5(1H)-carboxamide] had a Ki of 108 nM. In assay [2], this molecule yielded an EC50 of 178 nM.
In the same order, the values of `CN(C)C[C@@H](OC(=O)N1Cc2c(NC(=O)C3CCCCO3)n[nH]c2C1(C)C)c1ccccc1` (stereo partly drawn) [Example 16, (1S)-2-(dimethylamino)-1-phenylethyl 6,6-dimethyl-3-[(tetrahydro-2H-pyran-2-ylcarbonyl)amino]-4,6-dihydropyrrolo[3,4-c]pyrazole-5(1H)-carboxylate] are 118 nM and 17.9 nM.
For `CC(C)C[C@@H](CN(C)C)OC(=O)N1Cc2c(NC(=O)c3ccc(C(F)(F)F)cc3)n[nH]c2C1(C)C` [Example 79, (1S)-1-[(dimethylamino)methyl]-3-methylbutyl 6,6-dimethyl-3-{[4-(trifluoromethyl)benzoyl]amino}-4,6-dihydropyrrolo[3,4-c]pyrazole-5(1H)-carboxylate] the same measures were 96 nM and 2120 nM.
For `CC1(C)c2[nH]nc(NC(=O)c3cc4ccccc4s3)c2CN1C(=O)N[C@H](CO)c1ccccc1` [Example 99, 3-[(1-benzothien-2-ylcarbonyl)amino]-N-[(1S)-2-hydroxy-1-phenylethyl]-6,6-dimethyl-4,6-dihydropyrrolo[3,4-c]pyrazole-5(1H)-carboxamide] the same measures were 67.9 nM and 423 nM.
In turn, `CN(C)C[C@@H](NC(=O)N1Cc2c(NC(=O)c3ccc(C(F)(F)F)cc3)n[nH]c2C1(C)C)c1ccccc1` [Example 50, N-[(1S)-2-(dimethylamino)-1-phenylethyl]-6,6-dimethyl-3-{[4-(trifluoromethyl)benzoyl]amino}-4,6-dihydropyrrolo[3,4-c]pyrazole-5(1H)-carboxamide] gave an inhibition constant (Ki) in assay [1] of 33.8 nM. In assay [2], this molecule showed an EC50 of 335 nM.
In the same order, the values of `CN(C)C[C@@H](OC(=O)N1Cc2c(NC(=O)c3ccccc3)n[nH]c2C1(C)C)c1ccccn1` [Example 24, (1R)-2-(dimethylamino)-1-pyridin-2-ylethyl 3-(benzoylamino)-6,6-dimethyl-4,6-dihydropyrrolo[3,4-c]pyrazole-5(1H)-carboxylate] are 63.7 nM and 140 nM.
The molecule `CN(C)C[C@@H](OC(=O)N1Cc2c(NC(=O)C3CCCCC3)n[nH]c2C1(C)C)c1ccccc1` [Example 13, (1S)-2-(dimethylamino)-1-phenylethyl 3-[(cyclohexylcarbonyl)amino]-6,6-dimethyl-4,6-dihydropyrrolo[3,4-c]pyrazole-5(1H)-carboxylate] displayed a Ki in assay [1] of 109 nM. The molecule further gave an EC50 in assay [2] of 3.9 nM.
In the same order, the values of `CN(C)C[C@@H](OC(=O)N1Cc2c(NC(=O)[C@@H]3C[C@H]3c3ccccc3)n[nH]c2C1(C)C)c1ccccn1` [Example 29, (1R)-2-(dimethylamino)-1-pyridin-2-ylethyl 6,6-dimethyl-3-({[trans-2-phenylcyclopropyl]carbonyl}-amino)-4,6-dihydropyrrolo[3,4-c]pyrazole-5(1H)-carboxylate] are 27.1 nM and 419 nM.
In turn, `CC(=O)Nc1n[nH]c2c1CN(C(=O)N[C@H](CN(C)C)c1ccccc1)C2(C)C` [Example 52, 3-(acetylamino)-N-[(1S)-2-(dimethylamino)-1-phenylethyl]-6,6-dimethyl-4,6-dihydropyrrolo[3,4-c]pyrazole-5(1H)-carboxamide] came in with a Ki in assay [1] of 354 nM. Moreover, a half-maximal response in assay [2] (EC50) required 242 nM.
For `CN(Cc1ccccc1)C[C@@H](OC(=O)N1Cc2c(NC(=O)c3ccc(F)cc3)n[nH]c2C1(C)C)c1ccccc1` [Example 82, (1S)-2-[benzyl(methyl)amino]-1-phenylethyl 3-[(4-fluorobenzoyl)amino]-6,6-dimethyl-4,6-dihydropyrrolo[3,4-c]pyrazole-5(1H)-carboxylate] the same measures were 434 nM and 301 nM.
Molecule `CN(C)C[C@H](Cc1ccccc1)OC(=O)N1Cc2c(NC(=O)c3ccccc3)n[nH]c2C1(C)C` [Example 30, (1S)-1-benzyl-2-(dimethylamino)ethyl 3-(benzoylamino)-6,6-dimethyl-4,6-dihydropyrrolo[3,4-c]pyrazole-5(1H)-carboxylate] came in with a Ki in assay [1] of 106 nM. This molecule yielded an EC50 in assay [2] of 2090 nM.
The molecule `CN(C)C[C@@H](NC(=O)N1Cc2c(NC(=O)c3ccccc3)n[nH]c2C1(C)C)c1ccccc1` [Example 46, 3-(benzoylamino)-N-[(1S)-2-(dimethylamino)-1-phenylethyl]-6,6-dimethyl-4,6-dihydro pyrrolo[3,4-c]pyrazole-5(1H)-carboxamide] came in with a Ki in assay [1] of 33.6 nM. This molecule displayed an EC50 in assay [2] of 32.1 nM.
In the same order, the values of `CN(C)C[C@@H](OC(=O)N1Cc2c(NC(=O)c3ccno3)n[nH]c2C1(C)C)c1ccccc1` [Example 85, (S)-2-(dimethylamino)-1-phenylethyl 3-(isoxazole-5-carboxamido)-6,6-dimethylpyrrolo[3,4-c]pyrazole-5(1H,4H,6H)-carboxylate] are 143 nM and 4 nM.
For `CN(C)CC(OC(=O)N1Cc2c(NC(=O)c3ccc(F)cc3)n[nH]c2C1(C)C)c1cccc2cccnc12` (centres unmarked) [Example 94, 2-(dimethylamino)-1-(quinolin-8-yl)ethyl 3-(4-fluorobenzamido)-6,6-dimethylpyrrolo[3,4-c] pyrazole-5(1H,4H,6H)-carboxylate] the same measures were 161 nM and 413 nM.
For `CN(C)C[C@@H](OC(=O)N1Cc2c(NC(=O)C3CCCO3)n[nH]c2C1(C)C)c1ccccc1` (stereo partly drawn) [Example 15, (1S)-2-(dimethylamino)-1-phenylethyl 6,6-dimethyl-3-[(tetrahydrofuran-2-ylcarbonyl)amino]-4,6-dihydropyrrolo[3,4-c]pyrazole-5(1H)-carboxylate] the same measures were 145 nM and 16.1 nM.
Take `CN(C)C[C@@H](OC(=O)N1Cc2c(NC(=O)C3CCC3)n[nH]c2C1(C)C)c1ccccc1` [Example 11, (1S)-2-(dimethylamino)-1-phenylethyl 3-[(cyclobutylcarbonyl)amino]-6,6-dimethyl-4,6-dihydropyrrolo[3,4-c]pyrazole-5(1H)-carboxylate]: in assay [1], the Ki turned out to be 101 nM. In assay [2], the EC50 came to 15.7 nM.
In the same order, the values of `Cc1cc(C(=O)Nc2n[nH]c3c2CN(C(=O)O[C@H](CN(C)C)c2ccccc2)C3(C)C)no1` [Example 86, (S)-2-(dimethylamino)-1-phenylethyl 6,6-dimethyl-3-(5-methylisoxazole-3-carboxamido)pyrrolo[3,4-c]pyrazole-5(1H,4H,6H)-carboxylate] are 68.7 nM and 18 nM.
For `COc1ccc(CC(=O)Nc2n[nH]c3c2CN(C(=O)O[C@H](CN(C)C)c2ccccn2)C3(C)C)cc1` [Example 88, (1R)-2-(dimethylamino)-1-pyridin-2-ylethyl 3-{[(4-methoxyphenyl)-acetyl]amino}-6,6-dimethyl-4,6-dihydropyrrolo[3,4-c]pyrazole-5(1H)-carboxylate] the same measures were 35.6 nM and 88 nM.
In the same order, the values of “3-[(2,4-difluorobenzoyl)amino]-N-[(1S)-2-(dimethylamino)-1-phenylethyl]-6,6-dimethyl-4,6-dihydropyrrolo[3,4-c]pyrazole-5(1H)-carbox- amide [Example 49]” are 193 nM and 90.8 nM.
